According to PubChem BioAssay (NCI):
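Test compounds were applied to cells in 96-well plates for 48 hours at 5 doses. TGI marks complete inhibition of growth.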

tested on: SK-OV-3 ovarian; test: NCI tumour cell line growth inhibition, 48 h

Point of comparison: `CC(C)C(C/C=C1\CC(CO)(COC(=O)C(C)(C)C)OC1=O)C(C)C` (configuration not stated), TGI 29 µM. Against it:
- COc1ccc(C[C@H]2COC(=O)[C@@H]2Cc2cccc(Br)c2)cc1OC — 2.3-fold higher, 66.4 µM
- CSc1ccsc1-c1sc(-c2cc(SC)c(-c3sc(-c4cc(SC)c(-c5sccc5SC)s4)cc3SC)s2)cc1SC — higher, > 100 µM
- COc1cccc(C2c3cc4c(cc3OC(C)(N3CCCC3)C2C)OCO4)c1 (configuration not stated) — within 1.5-fold, 41.5 µM
- CCSC1=N/C(=C\c2ccc(N(C)C)cc2)C(Cl)=N1 — higher, > 100 µM
- COC1(OC)CCCc2c1no[n+]2[O-] — higher, > 100 µM
- CC1=C(/C=C/C(C)=C/C=C/C(C)=C/C(=O)OC2CC(n3cc(F)c(=O)[nH]c3=O)OC2CO)C(C)(C)CCC1 (configuration not stated) — within 1.5-fold, 19.7 µM
- O=C1C=C(NCCOCCO)C(=O)c2c(O)ccc(O)c21 — higher, > 100 µM
- CC(C)[Si]1(C(C)C)OCC2OC3(CO)C(Oc4nc(=O)ccn43)C2O[Si](C(C)C)(C(C)C)O1 (configuration not stated) — within 1.5-fold, 36.3 µM

tested on: NCI-H226 lung; test: NCI tumour cell line growth inhibition, 48 h

Point of comparison: `COc1cccc(C2c3cc4c(cc3OC(C)(N3CCCC3)C2C)OCO4)c1` (configuration not stated), TGI 27.3 µM. Against it:
- Cn1c2c(c3ccccc31)CCN1C(=O)CN(C(=O)C3CCCCC3)CC21 (configuration not stated) — higher, > 100 µM
- CCOC(=O)c1nc2cc(F)c(N3CCOCC3)cc2[nH]c1=O — higher, > 100 µM
- CCCC(=O)N1CCN(c2ccc3c(c2)OC(C)O3)CC1 (configuration not stated) — higher, > 100 µM
- C=C(Nc1nc2ccc(C)cc2s1)C(=O)C(CC)C(=O)C(CC)CC1C(=O)NC(=O)NC1=O (configuration not stated) — higher, > 100 µM
- CCOC(=O)[C@H](C)OC(=O)[C@@](C)(NC(=O)c1ccccc1C(=O)OC)[C@@H]1NC=C(C(=O)OC)CS1 — higher, > 100 µM
- Cn1c2ccccc2c(=O)c2cccc(C(=O)NC(CS)C(=O)O)c21 (configuration not stated) — higher, > 100 µM
- COc1ccc(N=NC(=O)NC(CC(C)C)C(=O)NC(C)C(=O)O)cc1 (configuration not stated) — higher, > 100 µM
- CC(=O)OCC1OC(n2c(C)cc(C)c(C#N)c2=S)C(OC(C)=O)C(OC(C)=O)C1OC(C)=O (configuration not stated) — higher, > 100 µM
- COC(=O)NC(C(F)(F)F)(C(F)(F)F)P1(=O)OCCCO1 — 3.6-fold higher, 98.7 µM
- CCOC(=O)NNC(=O)NCCCCNC(=O)NNC(=O)OCC — higher, > 100 µM
- COC(=O)c1nsc(OC)c1Cl — higher, > 100 µM
- Cc1c2cccc-2c(OCCO)cc2c3ccccc3n(C)c12 — within 1.5-fold, 24.2 µM
- c1ccc2c(c1)SCCC2NC1=NCCO1 (configuration not stated) — higher, > 100 µM
- C=CCN(C(=O)CNC(=O)C(F)(F)F)c1cc(OCc2ccccc2)c2c(c1)c(C)cn2S(=O)(=O)c1ccccc1 — higher, > 100 µM
- COC1=C(Br)[C@H](O)[C@@]2(C=C1Br)CC(C(=O)NCCCOc1c(Br)cc(C(O)CNC(C)=O)cc1Br)=NO2 (some centres not stated) — not separable, > 10 µM
- COc1ccc(C[C@H]2COC(=O)[C@@H]2Cc2cccc(Br)c2)cc1OC — higher, > 100 µM
- CCSC1=N/C(=C\c2ccc(N(C)C)cc2)C(Cl)=N1 — higher, > 100 µM
- COC1(OC)CCCc2c1no[n+]2[O-] — higher, > 100 µM
- CC1=C(/C=C/C(C)=C/C=C/C(C)=C/C(=O)OC2CC(n3cc(F)c(=O)[nH]c3=O)OC2CO)C(C)(C)CCC1 (configuration not stated) — 1.9-fold higher, 52.7 µM
- CC(C)C(C/C=C1\CC(CO)(COC(=O)C(C)(C)C)OC1=O)C(C)C (configuration not stated) — within 1.5-fold, 19.8 µM
- O=C1C=C(NCCOCCO)C(=O)c2c(O)ccc(O)c21 — higher, > 100 µM
- CC(C)[Si]1(C(C)C)OCC2OC3(CO)C(Oc4nc(=O)ccn43)C2O[Si](C(C)C)(C(C)C)O1 (configuration not stated) — within 1.5-fold, 31 µM

tested on: LOX IMVI melanoma; test: NCI tumour cell line growth inhibition, 48 h

Point of comparison: `COc1ccc(C[C@H]2COC(=O)[C@@H]2Cc2cccc(Br)c2)cc1OC`, TGI 14.6 µM. Against it:
- Cn1c2c(c3ccccc31)CCN1C(=O)CN(C(=O)C3CCCCC3)CC21 (configuration not stated) — higher, > 100 µM
- COC(=O)C1=C(O)c2ccc(Cl)cc2S(=O)(=O)N1C — higher, > 100 µM
- C=C(Nc1nc2ccc(C)cc2s1)C(=O)C(CC)C(=O)C(CC)CC1C(=O)NC(=O)NC1=O (configuration not stated) — higher, > 100 µM
- Cn1c2ccccc2c(=O)c2cccc(C(=O)NC(CS)C(=O)O)c21 (configuration not stated) — higher, > 100 µM
- CC(=O)OCC1OC(n2c(C)cc(C)c(C#N)c2=S)C(OC(C)=O)C(OC(C)=O)C1OC(C)=O (configuration not stated) — higher, > 100 µM
- COC(=O)NC(C(F)(F)F)(C(F)(F)F)P1(=O)OCCCO1 — 4-fold higher, 58.4 µM
- CCOC(=O)NNC(=O)NCCCCNC(=O)NNC(=O)OCC — higher, > 100 µM
- COC(=O)c1nsc(OC)c1Cl — higher, > 100 µM
- Cc1c2cccc-2c(OCCO)cc2c3ccccc3n(C)c12 — 1.8-fold lower, 8.15 µM
- c1ccc2c(c1)SCCC2NC1=NCCO1 (configuration not stated) — higher, > 100 µM
- C=CCN(C(=O)CNC(=O)C(F)(F)F)c1cc(OCc2ccccc2)c2c(c1)c(C)cn2S(=O)(=O)c1ccccc1 — higher, > 100 µM
- COC1=C(Br)[C@H](O)[C@@]2(C=C1Br)CC(C(=O)NCCCOc1c(Br)cc(C(O)CNC(C)=O)cc1Br)=NO2 (some centres not stated) — not separable, > 10 µM
- CSc1ccsc1-c1sc(-c2cc(SC)c(-c3sc(-c4cc(SC)c(-c5sccc5SC)s4)cc3SC)s2)cc1SC — higher, > 100 µM
- COc1cccc(C2c3cc4c(cc3OC(C)(N3CCCC3)C2C)OCO4)c1 (configuration not stated) — 1.7-fold higher, 25.1 µM
- COC1(OC)CCCc2c1no[n+]2[O-] — higher, > 100 µM
- CC1=C(/C=C/C(C)=C/C=C/C(C)=C/C(=O)OC2CC(n3cc(F)c(=O)[nH]c3=O)OC2CO)C(C)(C)CCC1 (configuration not stated) — within 1.5-fold, 20.6 µM
- CC(C)C(C/C=C1\CC(CO)(COC(=O)C(C)(C)C)OC1=O)C(C)C (configuration not stated) — within 1.5-fold, 17.7 µM
- O=C1C=C(NCCOCCO)C(=O)c2c(O)ccc(O)c21 — 2.1-fold higher, 30 µM
- CC(C)[Si]1(C(C)C)OCC2OC3(CO)C(Oc4nc(=O)ccn43)C2O[Si](C(C)C)(C(C)C)O1 (configuration not stated) — 2-fold higher, 28.7 µM

tested on: HOP-62 NSCLC; test: NCI tumour cell line growth inhibition, 48 h

`Cn1c2c(c3ccccc31)CCN1C(=O)CN(C(=O)C3CCCCC3)CC21` (configuration not stated) and `CCCC(=O)N1CCN(c2ccc3c(c2)OC(C)O3)CC1` (configuration not stated) cannot be ordered by TGI: over 100 µM for the first, over 100 µM for the second.

`CCOC(=O)c1nc2cc(F)c(N3CCOCC3)cc2[nH]c1=O` and `C=C(Nc1nc2ccc(C)cc2s1)C(=O)C(CC)C(=O)C(CC)CC1C(=O)NC(=O)NC1=O` (configuration not stated) cannot be ordered by TGI: over 100 µM for the first, over 100 µM for the second.

In the case of `CCOC(=O)[C@H](C)OC(=O)[C@@](C)(NC(=O)c1ccccc1C(=O)OC)[C@@H]1NC=C(C(=O)OC)CS1`, the TGI is reported as over 100 µM.
